Source: patent US20130178477A1, “METHODS OF TREATING DIABETIC NEUROPATHY USING BENZENESULFONAMIDES” (AbbVie Inc., priority 2012, published 2013)

Experiments:
[1] = Phase 1 first-in-human safety, tolerability and pharmacokinetic studies of Compound A in healthy subjects; assay type: in vivo
Protocol: (§1) In this study subjects with diabetic neuropathic pain were administered 100 mg BID up to 6 weeks and dosing has been completed. Nevertheless, if there is any new safety signal observed during this study, dosing of Compound A can be discontinued based on the joint decision of the investigators and study sponsor's medical monitor.
(§2) Single doses of Compound A up to 170 mg were well-tolerated in healthy subjects. The Compound A dose of 100 mg twice daily (BID) is the clinical dose used in the ongoing Phase 2a study in subjects with diabetic neuropathic pain. The dose of 100 mg is selected in the current study to explore the effect of Compound A in a microneurography model in order to bridge the efficacy outcome of Compound A in the Phase 2a study.
The safety, tolerability, and pharmacokinetics of Compound A in humans have been evaluated in 94 healthy adult subjects in the Phase 1 first-in-human (FIH) study with the single dose up to 170 mg and multiple doses up to 160 mg for 7 to 14 days. […] Given that Compound A is an investigational drug and this study will be conducted in diabetic patient population that generally has high risk factors, inclusion and exclusion have been carefully established to avoid exposing patients to undue risk. In addition, adequate safety monitoring procedures and stopping criteria are placed in the protocol.

[2] = Ongoing Phase 2 efficacy and safety study in subjects with diabetic neuropathic pain; assay type: in vivo, human; conditions: 100 mg BID up to 6 weeks
Protocol: as §1, §2

[3] = biological target: T-type (Cav3.2) calcium channel (Homo sapiens, UniProt O95180); assay: T-type calcium channel block (statement of selectivity)
[4] = cited from earlier work
[5] = 94 healthy adult subjects, single dose up to 170 mg, multiple doses up to 160 mg for 7 to 14 days

Sequence of T-type (Cav3.2) calcium channel (O95180 whole entry): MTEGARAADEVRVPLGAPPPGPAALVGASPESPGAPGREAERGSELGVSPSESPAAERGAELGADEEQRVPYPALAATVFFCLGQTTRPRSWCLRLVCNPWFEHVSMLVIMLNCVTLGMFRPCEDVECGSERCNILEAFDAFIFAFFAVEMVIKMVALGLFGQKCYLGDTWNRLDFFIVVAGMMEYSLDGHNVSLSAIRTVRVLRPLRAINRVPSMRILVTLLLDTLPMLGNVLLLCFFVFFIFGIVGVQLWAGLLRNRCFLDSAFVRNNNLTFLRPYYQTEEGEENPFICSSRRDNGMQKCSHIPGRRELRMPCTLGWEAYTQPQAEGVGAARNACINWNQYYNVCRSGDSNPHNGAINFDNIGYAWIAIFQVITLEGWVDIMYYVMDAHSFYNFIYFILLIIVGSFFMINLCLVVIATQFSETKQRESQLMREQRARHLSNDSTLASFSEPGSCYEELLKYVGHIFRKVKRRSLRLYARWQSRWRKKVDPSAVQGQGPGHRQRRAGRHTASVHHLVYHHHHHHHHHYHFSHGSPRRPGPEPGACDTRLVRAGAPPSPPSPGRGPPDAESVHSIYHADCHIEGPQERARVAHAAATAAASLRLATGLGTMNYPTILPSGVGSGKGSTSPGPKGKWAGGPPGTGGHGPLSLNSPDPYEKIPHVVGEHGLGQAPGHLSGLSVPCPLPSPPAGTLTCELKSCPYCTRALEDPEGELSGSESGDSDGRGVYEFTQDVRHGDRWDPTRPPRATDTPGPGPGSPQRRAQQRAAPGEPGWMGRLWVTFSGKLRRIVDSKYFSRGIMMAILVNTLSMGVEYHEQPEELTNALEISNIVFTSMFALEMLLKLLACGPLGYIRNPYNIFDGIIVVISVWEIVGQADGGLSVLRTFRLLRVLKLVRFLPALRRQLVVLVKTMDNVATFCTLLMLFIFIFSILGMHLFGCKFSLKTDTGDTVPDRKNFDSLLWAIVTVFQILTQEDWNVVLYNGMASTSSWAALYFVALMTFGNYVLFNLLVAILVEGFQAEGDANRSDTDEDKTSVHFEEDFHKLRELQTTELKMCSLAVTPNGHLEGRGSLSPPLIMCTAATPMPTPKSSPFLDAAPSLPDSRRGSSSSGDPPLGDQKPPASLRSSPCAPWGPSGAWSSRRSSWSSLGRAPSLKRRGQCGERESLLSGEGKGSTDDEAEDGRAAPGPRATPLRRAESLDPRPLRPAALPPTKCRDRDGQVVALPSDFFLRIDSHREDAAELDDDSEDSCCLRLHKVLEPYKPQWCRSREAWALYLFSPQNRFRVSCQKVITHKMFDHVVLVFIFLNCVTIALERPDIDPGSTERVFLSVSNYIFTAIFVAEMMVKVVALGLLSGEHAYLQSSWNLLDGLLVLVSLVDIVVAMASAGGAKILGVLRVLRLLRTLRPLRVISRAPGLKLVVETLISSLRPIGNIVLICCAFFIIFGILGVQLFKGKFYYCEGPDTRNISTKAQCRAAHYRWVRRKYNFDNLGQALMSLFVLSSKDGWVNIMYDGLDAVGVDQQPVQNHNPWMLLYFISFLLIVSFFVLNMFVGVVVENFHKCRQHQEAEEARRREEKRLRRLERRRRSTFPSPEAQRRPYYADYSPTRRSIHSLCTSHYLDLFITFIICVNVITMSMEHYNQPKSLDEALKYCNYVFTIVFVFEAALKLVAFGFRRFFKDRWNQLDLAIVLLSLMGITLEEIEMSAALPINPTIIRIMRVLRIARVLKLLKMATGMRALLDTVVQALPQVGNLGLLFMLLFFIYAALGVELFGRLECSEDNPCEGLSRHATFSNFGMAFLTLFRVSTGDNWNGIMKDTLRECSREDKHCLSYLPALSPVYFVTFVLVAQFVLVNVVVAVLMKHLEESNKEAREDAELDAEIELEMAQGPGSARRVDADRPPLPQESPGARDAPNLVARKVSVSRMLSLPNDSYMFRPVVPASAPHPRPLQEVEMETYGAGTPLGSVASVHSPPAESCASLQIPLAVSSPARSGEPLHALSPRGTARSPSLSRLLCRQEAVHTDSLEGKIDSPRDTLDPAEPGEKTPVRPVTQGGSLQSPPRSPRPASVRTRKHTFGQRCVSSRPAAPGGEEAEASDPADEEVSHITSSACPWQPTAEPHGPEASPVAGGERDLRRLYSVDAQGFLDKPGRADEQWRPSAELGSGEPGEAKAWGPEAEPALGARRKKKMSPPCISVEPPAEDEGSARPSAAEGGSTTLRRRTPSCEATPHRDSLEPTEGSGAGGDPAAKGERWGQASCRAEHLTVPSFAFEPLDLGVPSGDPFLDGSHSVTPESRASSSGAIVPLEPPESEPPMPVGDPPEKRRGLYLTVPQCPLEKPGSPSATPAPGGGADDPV

In the case of `O=C(c1cc(S(=O)(=O)Nc2ccccc2F)c(F)cc1Cl)N1CCN2CCC[C@@H]2C1` [Compound A, 4-chloro-2-fluoro-N-(2-fluorophenyl)-5-[(8aR)-hexahydropyrrolo[1,2-a]pyrazin-2(1H)-ylcarbonyl]benzenesulfonamide], the tolerability ([1]; 94 healthy adult subjects, single dose up to 170 mg and multiple doses up to 160 mg for 7 to 14 days) was “well tolerated”, the “dose dependence of occurrence of adverse events” value [1, 5] was “does not appear to be dose-dependent” and the “findings in vital signs, ECG and laboratory tests” value [1, 5] was “no clinically relevant findings”. The “severity of adverse events” value [1, 5] was “mild except one event”, the safety findings ([1]; Phase 1 studies in healthy adults and healthy elderly subjects) was “no clinically important safety findings” and the “adverse drug reactions in the current clinical program” value ([1]; current clinical program) was “no adverse drug reactions identified”. For the same molecule, the “tolerability of single doses” value ([1]; single doses up to 170 mg, healthy subjects) was “well-tolerated”, the safety findings [2] was “no clinically important safety findings” and the “selectivity as calcium channel blocker” value [3] was “highly selective”.

For `CCN(CC)CC(=O)Nc1c(C)cccc1C` [Lidocaine], the effect on pain ([4]; IV infusion 2 mg/kg or 5 mg/kg, patients with painful diabetic neuropathy) is listed as “reduction of pain”, the “pain relief versus placebo” value ([4]; IV infusion 5 mg/kg, patients with painful diabetic neuropathy) is listed as “consistent superiority to placebo” and the “duration of pain relief following infusion” value ([4]; patients with diabetic neuropathy) is listed as “up to 21 days”. The “effect of systemic administration in neuropathic pain conditions” value ([4]; systemic administration, several neuropathic pain conditions) was “analgesic effects”.
